Experiments:
[1] = molecular target: T1, Calcium-activated potassium channel subunit beta-4 (Homo sapiens, UniProt Q86W47); experiment: Binding affinity to NT-495 fluorophore reagent labelled human BK beta4 (45 to 166 residues) incubated for 30 mins by microscale thermophoresis assay
T1 sequence (Q86W47 whole entry): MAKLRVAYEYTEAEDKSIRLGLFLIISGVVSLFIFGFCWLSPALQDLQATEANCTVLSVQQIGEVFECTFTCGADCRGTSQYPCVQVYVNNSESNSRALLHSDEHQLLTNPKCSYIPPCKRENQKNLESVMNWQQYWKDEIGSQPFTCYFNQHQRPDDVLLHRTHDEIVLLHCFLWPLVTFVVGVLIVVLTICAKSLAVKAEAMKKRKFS

[2] = molecular target: KCNMA1/KCNMB4 (Homo sapiens, UniProt Q12791+Q86W47); experiment: Inhibition of human BK alpha/beta4 channel expressed in HEK293T cells assessed as K+ outward current fraction at 10 uM at -80 mV holding potential by whole cell patch clamp method relative to control; type: cell-based

Row | Kd ([1]; read-out: Kd) [mM] | Ratio [2] | Kd [1] | SMILES
1 | 1.1 | 0.56 | – | CC[C@H](C)[C@H](NC(=O)[C@H](CC(C)C)NC(=O)CNC(=O)[C@H](Cc1ccccc1)NC(=O)[C@H](CO)NC(=O)CN)C(=O)N[C@@H](CCCCN)C(=O)N[C@H](C(=O)N[C@@H](CCCCN)C(=O)N[C@H]1CSSC[C@@H]2NC(=O)[C@H](CCCCN)NC(=O)CNC(=O)[C@H](CCC(N)=O)NC(=O)CNC(=O)[C@H](CO)NC(=O)CNC(=O)[C@H]([C@@H](C)O)NC(=O)[C@H](C(C)C)NC(=O)[C@H](CCCCN)NC(=O)[C@H](CCCCN)NC(=O)[C@@H]3CSSC[C@@H](C(=O)N[C@@H](Cc4ccc(O)cc4)C(=O)O)N[C@@H](CCCNC(=N)N)C(=O)[C@H](CSSC[C@H](NC(=O)[C@H](CCCCN)NC(=O)[C@H](CO)NC(=O)[C@H](CO)NC(=O)[C@H](C)NC(=O)[C@H](Cc4ccccc4)NC1=O)C(=O)N[C@@H](Cc1c[nH]c4ccccc14)C(=O)N[C@@H]([C@@H](C)O)C(=O)N[C@@H](C)C(=O)N3)N[C@@H](CCC(N)=O)C(=O)NC(=O)[C@H](CC(N)=O)NC(=O)[C@H](CC(N)=O)NC(=O)[C@H](CCC(N)=O)NC2=O)C(C)C
2 | 109 | 0.75 | – | CC[C@H](C)[C@H](NC(=O)[C@H](CC(C)C)NC(=O)CNC(=O)[C@H](Cc1ccccc1)NC(=O)[C@H](CO)NC(=O)CN)C(=O)N[C@@H](CC(=O)O)C(=O)N[C@H](C(=O)N[C@@H](CCCCN)C(=O)N[C@H]1CSSC[C@@H]2NC(=O)[C@H](CCCCN)NC(=O)CNC(=O)[C@H](CCC(N)=O)NC(=O)CNC(=O)[C@H](C)NC(=O)CNC(=O)[C@H]([C@@H](C)O)NC(=O)[C@H](C(C)C)NC(=O)[C@H](CCCCN)NC(=O)[C@H](CCCCN)NC(=O)[C@@H]3CSSC[C@@H](C(=O)N[C@@H](Cc4ccc(O)cc4)C(=O)O)N[C@@H](CCCNC(=N)N)C(=O)[C@H](CSSC[C@H](NC(=O)[C@H](CCC(=O)O)NC(=O)[C@H](CO)NC(=O)[C@H](CO)NC(=O)[C@H](C)NC(=O)[C@H](Cc4ccccc4)NC1=O)C(=O)N[C@@H](Cc1c[nH]c4ccccc14)C(=O)N[C@@H]([C@@H](C)O)C(=O)N[C@@H](C)C(=O)N3)N[C@@H](CCC(N)=O)C(=O)NC(=O)[C@H](CC(N)=O)NC(=O)[C@H](CC(N)=O)NC(=O)[C@H](CCC(N)=O)NC2=O)C(C)C
3 | – | 0.8 | Not Active | CC[C@H](C)[C@H](NC(=O)[C@H](CC(C)C)NC(=O)CNC(=O)[C@H](Cc1ccccc1)NC(=O)[C@H](CO)NC(=O)CN)C(=O)N[C@@H](CC(=O)O)C(=O)N[C@H](C(=O)N[C@@H](CCCCN)C(=O)N[C@H]1CSSC[C@@H]2NC(=O)[C@H](CCC(=O)O)NC(=O)CNC(=O)[C@H](CCC(N)=O)NC(=O)CNC(=O)[C@H](CO)NC(=O)CNC(=O)[C@H]([C@@H](C)O)NC(=O)[C@H](C(C)C)NC(=O)[C@H](CCCCN)NC(=O)[C@H](CCCCN)NC(=O)[C@@H]3CSSC[C@@H](C(=O)N[C@@H](Cc4ccc(O)cc4)C(=O)O)N[C@@H](CC(=O)O)C(=O)[C@H](CSSC[C@H](NC(=O)[C@H](CCC(=O)O)NC(=O)[C@H](CO)NC(=O)[C@H](CO)NC(=O)[C@H](C)NC(=O)[C@H](Cc4ccccc4)NC1=O)C(=O)N[C@@H](Cc1c[nH]c4ccccc14)C(=O)N[C@@H]([C@@H](C)O)C(=O)N[C@@H](C)C(=O)N3)N[C@@H](CCC(N)=O)C(=O)NC(=O)[C@H](CC(N)=O)NC(=O)[C@H](CC(N)=O)NC(=O)[C@H](CCC(N)=O)NC2=O)C(C)C
4 | 0.55 | 0.36 | – | CC[C@H](C)[C@H](NC(=O)[C@H](CC(C)C)NC(=O)CNC(=O)[C@H](Cc1ccccc1)NC(=O)[C@H](CO)NC(=O)CN)C(=O)N[C@@H](CC(=O)O)C(=O)N[C@H](C(=O)N[C@@H](CCCCN)C(=O)N[C@H]1CSSC[C@@H]2NC(=O)[C@H](CCCCN)NC(=O)CNC(=O)[C@H](CCC(N)=O)NC(=O)CNC(=O)[C@H](CO)NC(=O)CNC(=O)[C@H]([C@@H](C)O)NC(=O)[C@H](C(C)C)NC(=O)[C@H](CCCCN)NC(=O)[C@H](CCCCN)NC(=O)[C@@H]3CSSC[C@@H](C(=O)N[C@@H](Cc4ccc(O)cc4)C(=O)O)N[C@@H](CCCNC(=N)N)C(=O)[C@H](CSSC[C@H](NC(=O)[C@H](CCC(=O)O)NC(=O)[C@H](CO)NC(=O)[C@H](CO)NC(=O)[C@H](C)NC(=O)[C@H](Cc4ccccc4)NC1=O)C(=O)N[C@@H](Cc1c[nH]c4ccccc14)C(=O)N[C@@H](C(C)C)C(=O)N[C@@H](C)C(=O)N3)N[C@@H](CCC(N)=O)C(=O)NC(=O)[C@H](CC(N)=O)NC(=O)[C@H](CC(N)=O)NC(=O)[C@H](CCC(N)=O)NC2=O)C(C)C

From ChEMBL document CHEMBL4354835, “Selective Blockade of Neuronal BK (α + β4) Channels Preventing Epileptic Seizure” (J Med Chem, 2020)
